From patent US20230201262A1, “MYELOMA-SPECIFIC IMMUNITY REQUIRES THE DIFFERENTIATION OF STEM-LIKE MEMORY T CELLS IN THE BONE MARROW” (Fred Hutchinson Cancer Center, priority 2021, published 2023)
Entries after “also recorded” stand apart in the source; their conditions may differ.

Experiments:
Vk*MYC myeloma = format: in vivo
From the text: To achieve this, a system of allogeneic BMT was developed where C57B⅙ recipients are transplanted with BM and T cell grafts from minor MHC (major histocompatibility complex)-mismatched C3H.SW donors (alloBMT) or syngeneic C57B⅙ donors (synBMT). A green fluorescent protein (GFP)-expressing MLL-AF9-driven leukemia that allows for monitoring of tumor cells in peripheral blood and Vk*MYC myeloma that secretes immunoglobulin G (IgG), which can be monitored by serum protein electrophoresis as an M-band (albumin/gamma ratio) that is a hallmark of clinical disease, were utilized.
(§1) Stem cell transplantation: Recipient mice were intravenously injected with Vk12653, which originated from Vk*MYC transgenic mice, 2 weeks before BMT (1 × 10^6 CD138^+CD19neg cells; MM-bearing mice) or with an MLL-AF9-driven AML (MLL-AF9; 0.1 × 10^6 GFP^+) or BCR-ABL-NUP98-HOXA9 (1.0 × 10^6 GFP^+) on D0 (AML-bearing mice). Recipients were transplanted with BM and T cell grafts (doses detailed in the figure legends) administered via tail vein injection the day after lethal irradiation (1000 cGy for C57B⅙ and 1100 cGy for B62DF1, 137Cs source). Every 2 weeks, serum samples were collected from MMbearing recipients, and M-band was quantified using a Sebia Hydrasys serum protein electrophoresis system ([…] 2 Scan). Leukemia cell number in blood was calculated weekly using flow cytometry to quantify GFP^+ cells in blood. Recipients were monitored daily, up to 120 days after BMT, and euthanized when hindlimb paralysis occurred or clinical scores reached ≥6. In competing risk analyses, deaths were attributed to myeloma if the M-band was above 0.28, a defined relapse threshold. In the leukemia models, leukemic death was defined by a white blood cell count above 50 × 10^6/ml or a GFP^+ leukemia frequency above 50% in blood or BM. For some experiments, mice were treated with 100 µg of anti-TIGIT monoclonal antibody (mAb; 4B1, Bristol Myers Squibb) or mouse IgG2a (anti-KLH) twice a week for 4 weeks from D+14 postalloBMT. For other experiments, mice were treated with 100 µg of Fc-dead anti-TIGIT mAb (D265A, Bristol Myers Squibb) or mouse IgG1 (anti-KLH.1) twice a week for 6 weeks from D+21 postalloBMT. Cyclophosphamide (Fisher Scientific; 99.5%, MP Biomedicals) was intraperitoneally administered at 50 mg/kg on D+3 and D+4 after alloBMT (PT-Cy). […] DR-18 was supplied by Simcha Therapeutics (New Haven, CT).
(§2) Cell preparation for flow cytometry: Recipient mice were euthanized 2 to 8 weeks after transplant, and cells from BM or blood were harvested. For BM aspirates, mice were anesthetized and treated with a local analgesic (0.5% lidocaine) followed by injection of 30 µl of phosphate-buffered saline (PBS) into the femur to allow up to 10 µl of marrow to be aspirated for fluorescence- activated cell sorting (FACS) analysis. For surface marker phenotyping, isolated cells were incubated with Fc-block before staining with fluorescently tagged antibodies (listed in Table 1), on ice for 30 min. For intracellular staining, cells were surface labeled, fixed, and permeabilized (eBioscience, Foxp3 Transcription Factor Staining Buffer Kit) before intracellular staining at room temperature for 60 min. To measure cytokine production, cells were stimulated for 4 hours at 37° C. with PMA (500 ng/ml) and ionomycin (50 ng/ml; Sigma-Aldrich) with brefeldin A (BioLegend). All samples were acquired on a BD LSR Fortessa (BD Biosciences) or BD FACSymphony A3 (BD Biosciences) and analyzed using FlowJo software (v10). t-SNE analysis was performed using the FlowJo plugin with default settings on a concatenated sample with 3000 CD8 T cells per mouse. FlowSOM analysis was performed with 3000 to 4000 CD8 or CD4 T cells per mouse concatenated after downsampling.
Statistical analysis: Data are presented as means ± SEM, and P < 0.05 was considered significant. Survival curves were plotted using Kaplan-Meier estimates and compared by log-rank (Mantel-Cox) test.

T cells in the BM = tested on: T cells in the BM
Method: It was next investigated whether it was possible to eliminate highly activated, alloreactive T cells to preserve T cell subsets that could be safely harnessed to improve GVT responses in the BM after alloBMT. […] T cell phenotypes in the BM were first assessed 14 days after transplantation in MM-free mice to generate a dataset that could be broadly interpreted independent of specific tumor induced phenotypes. Single-cell sequencing was performed on sorted T cells from BM with the 10x Genomics Multiome platform to measure concurrent changes in gene expression (RNA sequencing) and chromatin accessibility (ATAC (assay for transposase-accessible chromatin) sequencing).
as §2
Single-cell RNA/ATAC sequencing: Naive C57B⅙ mice were transplanted with C3H.SW grafts and were untreated (alloBMT) or treated with PT-Cy (50 mg/kg) on D+3 and D+4 (PT-Cy). BM was harvested from femurs (four mice pooled per group) at D+14 after alloBMT, and T cells were sort-purified (CD90.2^+CD4^+ and CD90.2^+CD8^+) before nuclei preparation according to the 10x Genomics Multiome protocol. Nuclei (also referred to as cells herein) were captured and libraries were generated according to the manufacturer’s specifications. Libraries were sequenced using Illumina NovaSeq 6000 targeting a depth of 25,000 reads per cell per library.
Single-cell RNA/ATAC analysis: Reads were demultiplexed and processed using cellranger-arc v1.0.1 aligning reads to GENCODE vM23/Ensembl98. Peaks were called from each sample’s fragment file (cellranger output) using MACS2 using the parameters “--nomodel --extsize 200 --shift -100.” Quantification of reads in MACS2 peaks were calculated and integrated with cellranger RNA output using Signac. Cells meeting the following criteria (calculated using Signac) were retained for downstream analysis: percent mitochondrial RNA reads <10%; 3 > log10(ATAC counts) < 4.5; 3 > log10(RNA/UMI counts) < 4.5; fraction of reads in peaks >40%; transcription start site (TSS) percentile >75%. RNA/unique molecular identifier (UMI) counts were subject to a variance-stabilized normalization procedure using Seurat’s “glmGamPoi” function before dimensionality reduction using principal components analysis (PCA).

[1] = tested on: BCR-ABL-NUP98-HOXA9 leukemia
Method: Recipients were untreated (haploBMT) or administered PT-Cy (50 mg/kg) on D+3 and D+4 (PT-Cy) with or without decoy-resistant IL-18 (PT-Cy + DR-18; 8 µg twice weekly from D+7 to week 5) or CD137 agonist antibody (PT-Cy + αCD137; 100 µg twice weekly from D+7 to week 5).
It was next sought to explore the combination of agonist immunotherapy with PT-Cy in a model of haploidentical transplantation (haploBMT), a setting where PT-Cy is a clinical standard of care. In this model, there is a major genetic mismatch between the recipient and the donor whereby lethal GVHD occurs in the absence of any immunosuppressive interventions.
To explore the mechanisms of DR-18-driven GVL in a haploBMT setting, donor cells from a triple reporter mouse (FoxP3-RFP × IL-10-GFP × IFN-γ-YFP) were used to measure in vivo cytokine production without restimulation. Phenotyping was performed in mice with low leukemia burden to minimize the effect of tumor cells on T cell number in the BM.
as §1

[2] = 50 mg/kg D+3 and D+4, vs untreated recipients
[3] = 50 mg/kg D+3 and D+4, D+14, multiome sequencing, vs untreated alloBMT
[4] = 50 mg/kg D+3 and D+4, vs untreated haploBMT
[5] = 21 days after transplantation, vs untreated haploBMT
[6] = 21 days, PT-Cy vs untreated haploBMT

O=P1(N(CCCl)CCCl)NCCCO1 (stereo not shown) [PT-Cy, cyclophosphamide]
overall survival (Vk*MYC myeloma; 50 mg/kg D+3 and D+4, vs untreated alloBMT): did not significantly reduce overall survival | myeloma burden (M-band) at 4 weeks after alloBMT (Vk*MYC myeloma; [2]): early myeloma cytoreduction with reduced M-bands | myeloma progression (M-band) 8 weeks after alloBMT (Vk*MYC myeloma; [2]): subsequent increase in myeloma progression | CD8+ T cell phenotype in BM, MM-bearing recipients (Vk*MYC myeloma; 7 weeks after transplant): most CD8^+ T cells were DNAM-1-TIGIT^+ with high expression of TOX and TIM-3 | total numbers of CD4+ and CD8+ T cells in BM (Vk*MYC myeloma; 7 weeks after transplant): reduction in total numbers of CD4^+ and CD8^+ T cells | total T cell numbers (CD8 and CD4) in BM (Vk*MYC myeloma; D+14 (MM-free) and D+21 (MM-bearing) after alloBMT): concurrently reduced; also recorded: reduces the total number of CD8 and CD4 T cells | chromatin accessibility (gene activity scores) of Il18r1, Il2ra, Il7r in CD8+ and CD4+ T cells (T cells in the BM; 50 mg/kg D+3 and D+4, D+14, ATAC): increased gene activity scores | gene signature expression in BM CD8+ T cells (T cells in the BM; [3]): higher expression of stem-like memory gene signatures | gene signature in BM CD4+ T cells (T cells in the BM; [3]): largely enriched for a TSCM signature | CD8+ T cell phenotype in BM, MM-free recipients (T cells in the BM; 7 weeks after transplant): most CD8^+ T cells were DNAM-1^+TIGIT^- and did not express TOX or TIM-3 | CD8+ central memory and terminal effector T cells, MM-free recipients (T cells in the BM; 7 weeks after transplant): increase in CD8^+ central memory (TCM; CD44^+CD62L^+) and a decrease in terminal effector (TEFF; CD44^-CD62L^-) T cells | frequency of alloreactive, exhausted T cells in the BM (T cells in the BM; D+14): reduced the frequency of alloreactive, exhausted T cells | granzyme B production by CD8+ T cells (T cells in the BM; D+14, RNA and protein expression): did not abrogate granzyme B production | CD4+ T cell exhaustion signature in FoxP3- conventional CD4+ T cells (T cells in the BM; D+14, flow cytometry): largely indistinguishable from synBMT recipients | DNAM-1, TIGIT, PD-1 and TOX expression on BM CD8+ T cells (T cells in the BM; D+14, flow cytometry, vs alloBMT without PT-Cy): significantly increased DNAM-1 and reduced TIGIT, PD-1, and TOX expression | incidence of lethal GVHD [1, 4]: reduced the incidence of lethal GVHD | relapse-related mortality [1, 4]: increased relapse-related mortality | CD8+ T cell numbers in the BM [1, 5]: reduced | NK cells in the BM [1, 5]: increased | CD4+ IFN-γ production [1, 6]: unaffected | frequency of IFN-γ+ CD8+ T cells [1, 6]: minimally decreased | overall survival ([1]; PT-Cy vs untreated haploBMT): no difference in overall survival
